We go through two compounds from US9095624B2 (priority 2011, dated 2015).

In test [1] the test system is Balb/c ByJIco-nu/nu mice with A431 human epidermoid carcinoma xenografts. To be noted: mouse, in vivo.
The test system of test [2] is C57Black/6J mice with B16-F1 melanoma. As to the kind of experiment: Photodynamic therapy, B16-F1 melanoma. Type of test: in vivo. On the procedure:
(§1) In order to evaluate the potential utility of MTP for enhancing the therapeutic efficacy of a drug that requires localization within the cell nucleus to be effective, photodynamic therapy (PDT) studies were performed in three different murine subcutaneous tumor models, with PDT initiated three hours after photosensitizer (PS) injection. The comparative efficacy of photodynamic therapy with bacteriochlorin p conjugated with DTox-HMP-NLS-αMSH MTP and free bacteriochlorin p is reported in FIGS. 11A-D.
The first experiment was performed in C57Black/6J mice with B16-F1 melanoma. FIG. 11A reports tumor growth, mean±SEM, with injection and illumination cycles indicated with arrows. The average tumor volumes are shown up to the last day when all animals were alive in a group. FIG. 11B provides the Kaplan-Meier survival curve. […] The median survival for mice receiving PS-MTP conjugate was 32.0±1.3 days compared with 17.0±1.5 days for the control group and 20.0±5.5 days for the bacteriochlorin group (FIG. 11B). The difference in survival between PS-MTP and each of two control groups was significant (p<0.01).

For test [3], the system named is DBA/2 mice with Cloudman S91 melanoma. Put plainly: Photodynamic therapy, Cloudman S91 melanoma. Type of test: in vivo. To be noted: PDT. The procedure:
as §1
The second experiment utilized DBA/2 mice with Cloudman S91 melanoma. FIG. 11C reports tumor growth, mean±SEM with the injection and illumination cycles being indicated with arrows. The average tumor volumes are shown up to the last day when all animals were alive in a group. FIG. 11D provides the Kaplan-Meier survival curve. […] The median survival for mice receiving PS-MTP conjugate was 56.0±18.6 days compared with 21.0±0.7 days for the control group and 31.0±1.3 days for the bacteriochlorin group (FIG. 11D).

On to `C=Cc1c(C)c2cc3nc(c(CC(=O)O)c4[nH]c(cc5nc(cc1[nH]2)C(C)=C5CC)c(C)c4C(=O)O)[C@@H](CCC(=O)O)[C@@H]3C` [chlorin e6], for which the “animals remaining alive at the end of the observation period” value in test [1] turned out to be 20%.

On to bacteriochlorin p, for which the figures for the median survival in test [2] (PDT) and in test [3] were 20.0 ± 5.5 days and 31.0 ± 1.3 days, respectively. The “inhibition in tumor growth” value in test [2] (PDT three hours after photosensitizer injection) was “no significant effect”.
